Test results taken from the supplement of paper PMC5908809.

Assays:
[1] = system: normal NK cells expanded with K562-aAPC; test: drug sensitivity score (DSS) (DSS units); higher = more sensitive; extreme values may be limits of the assay; details: 72 h; IL-2 2.5 ng/mL
Method: (§1)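 Drug sensitivity and resistance testing on K562-aAPC-expanded normal NK cells: 5 concentrations (10-fold steps over a 10,000-fold range), 72 h at 37 °C, viability by CellTiter-Glo normalised to DMSO and benzethonium chloride controls; DSS from the fitted curve.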

SNK-6 (IL-2 2.5 ng/mL) [2] = test: percent inhibition of viability; higher = more inhibition; details: 72 h
[3] = system: normal primary NK cells, pool 1 (3 donors), resting (IL-2 0 ng/mL); test: as above; details: 72 h
IMC-1 (IL-2 20 ng/mL) [4] = test: as above; details: 72 h
NK-92 (IL-2 2.5 ng/mL) [5] = test: as above; details: 72 h
KHYG-1 (IL-2 2.5 ng/mL) [6] = test: as above; details: 72 h
[7] = system: normal primary NK cells, pool 3 (3 donors) (IL-2 2.5 ng/mL); test: as above; details: 72 h
YT (IL-2 2.5 ng/mL) [8] = test: as above; details: 72 h
[9] = system: normal primary NK cells, pool 1 (3 donors) (IL-2 2.5 ng/mL); test: as above; details: 72 h
[10] = system: normal primary NK cells, pool 2 (3 donors) (IL-2 2.5 ng/mL); test: as above; details: 72 h
NKL (IL-2 2.5 ng/mL) [11] = test: as above; details: 72 h
NK-YS (IL-2 2.5 ng/mL) [12] = test: as above; details: 72 h
DERL-7 (IL-2 2.5 ng/mL) [13] = test: as above; details: 72 h
KAI3 (IL-2 2.5 ng/mL) [14] = test: as above; details: 72 h
SNK-6 (IL-2 2.5 ng/mL) [15] = test: drug sensitivity score (DSS) (DSS units); higher = more sensitive; extreme values may be limits of the assay; details: 72 h
[16] = system: normal primary NK cells, pool 1 (3 donors), resting (IL-2 0 ng/mL); test: as above; details: 72 h
IMC-1 (IL-2 20 ng/mL) [17] = test: as above; details: 72 h
NK-92 (IL-2 2.5 ng/mL) [18] = test: as above; details: 72 h
KHYG-1 (IL-2 2.5 ng/mL) [19] = test: as above; details: 72 h
[20] = system: normal primary NK cells, pool 3 (3 donors) (IL-2 2.5 ng/mL); test: as above; details: 72 h
YT (IL-2 2.5 ng/mL) [21] = test: as above; details: 72 h
[22] = system: normal primary NK cells, pool 1 (3 donors) (IL-2 2.5 ng/mL); test: as above; details: 72 h
[23] = system: normal primary NK cells, pool 2 (3 donors) (IL-2 2.5 ng/mL); test: as above; details: 72 h
NKL (IL-2 2.5 ng/mL) [24] = test: as above; details: 72 h
NK-YS (IL-2 2.5 ng/mL) [25] = test: as above; details: 72 h
DERL-7 (IL-2 2.5 ng/mL) [26] = test: as above; details: 72 h
KAI3 (IL-2 2.5 ng/mL) [27] = test: as above; details: 72 h
[28] = system: normal NK cells expanded with K562-aAPC; test: percent inhibition of viability; higher = more inhibition; details: 72 h, IL-2 2.5 ng/mL
Method: as §1

O=C(CCBr)N1CCN(C(=O)CCBr)CC1 [Pipobroman] (max concentration tested 10000 nM)
Details	drug sensitivity score
DERL-7 (IL-2 2.5 ng/mL) [26]	0
IMC-1 (IL-2 20 ng/mL) [17]	0.19
KAI3 (IL-2 2.5 ng/mL) [27]	0.46
KHYG-1 (IL-2 2.5 ng/mL) [19]	0.42
NK-92 (IL-2 2.5 ng/mL) [18]	1.49
NK-YS (IL-2 2.5 ng/mL) [25]	1.85
NKL (IL-2 2.5 ng/mL) [24]	1.54
SNK-6 (IL-2 2.5 ng/mL) [15]	0
YT (IL-2 2.5 ng/mL) [21]	0.07
[1]	1.23
[16]	6.82
[20]	0.45
[22]	0
[23]	0

percent inhibition of viability [%]
Details	1 nM	10 nM	100 nM	1000 nM	10000 nM
DERL-7 (IL-2 2.5 ng/mL) [13]	-7.31	-1.37	2	-0.47	-5.96
IMC-1 (IL-2 20 ng/mL) [4]	-6.08	-8.46	-2.84	4.89	11.6
KAI3 (IL-2 2.5 ng/mL) [14]	-6.26	-3.77	3.05	9.16	13.5
KHYG-1 (IL-2 2.5 ng/mL) [6]	-9.07	-13.9	-7.89	3.77	13.7
NK-92 (IL-2 2.5 ng/mL) [5]	-22.2	-18.9	-1.01	4.98	22.7
NK-YS (IL-2 2.5 ng/mL) [12]	-6.73	-7.25	-3.41	11.6	20.9
NKL (IL-2 2.5 ng/mL) [11]	-27.2	-17.8	-14.3	16.6	15.7
SNK-6 (IL-2 2.5 ng/mL) [2]	-14.3	-17.7	-17.4	-17.5	-6.39
YT (IL-2 2.5 ng/mL) [8]	-7.45	-10.7	-5.22	0.28	12.2
[3]	2.78	-3.45	22.7	19.1	26.8
[7]	-9.04	-2.96	2.05	2.18	15.1
[9]	1.85	-2.09	11.8	-0.73	2.49
[10]	-5.41	-3.61	2.8	4.47	2.02
[28]	-6.43	-6.37	-5.59	7.79	18.1

Nc1cccc2c1C(=O)N(C1CCC(=O)NC1=O)C2=O (configuration not stated) [Pomalidomide] (max concentration tested 10000 nM)
Details	drug sensitivity score
DERL-7 (IL-2 2.5 ng/mL) [26]	0
IMC-1 (IL-2 20 ng/mL) [17]	0
KAI3 (IL-2 2.5 ng/mL) [27]	0
KHYG-1 (IL-2 2.5 ng/mL) [19]	0
NK-92 (IL-2 2.5 ng/mL) [18]	0
NK-YS (IL-2 2.5 ng/mL) [25]	0
NKL (IL-2 2.5 ng/mL) [24]	3.93
SNK-6 (IL-2 2.5 ng/mL) [15]	0.99
YT (IL-2 2.5 ng/mL) [21]	0
[1]	0
[16]	0
[20]	0
[22]	0
[23]	0

percent inhibition of viability [%]
Details	1 nM	10 nM	100 nM	1000 nM	10000 nM
DERL-7 (IL-2 2.5 ng/mL) [13]	-0.13	-4.4	15.2	-7.7	-4.17
IMC-1 (IL-2 20 ng/mL) [4]	-4	-1.04	-2.22	-4.13	-2.92
KAI3 (IL-2 2.5 ng/mL) [14]	-0.58	-8.97	-7.97	-13.6	-12.9
KHYG-1 (IL-2 2.5 ng/mL) [6]	-4.54	-1.13	-5.7	-4.26	-0.94
NK-92 (IL-2 2.5 ng/mL) [5]	-1.19	-10.2	-3.35	-12.4	-16.6
NK-YS (IL-2 2.5 ng/mL) [12]	-3.69	-2.34	-5.2	-2.26	-0.5
NKL (IL-2 2.5 ng/mL) [11]	-6.14	-8.75	7.72	18.5	21.2
SNK-6 (IL-2 2.5 ng/mL) [2]	-0.98	3.29	13.5	-10.9	31.7
YT (IL-2 2.5 ng/mL) [8]	-5.53	-2.96	-0.67	-5.5	-0.71
[3]	-1.02	-19.1	-32.7	-20.7	-23.7
[7]	-16	7.94	-8.83	-7.7	-5.51
[9]	-3.59	-0.54	-10.1	9.65	3.39
[10]	-13.3	1.17	-2.18	-2.49	-1.88
[28]	-10.8	-9.91	-9.37	-11.8	-8.13

C[C@]12C=CC(=O)C=C1CC[C@@H]1[C@@H]2C(=O)C[C@@]2(C)[C@H]1CC[C@]2(O)C(=O)CO [Prednisone] (max concentration tested 10000 nM)
Details	drug sensitivity score
DERL-7 (IL-2 2.5 ng/mL) [26]	0
IMC-1 (IL-2 20 ng/mL) [17]	0.5
KAI3 (IL-2 2.5 ng/mL) [27]	0.51
KHYG-1 (IL-2 2.5 ng/mL) [19]	0.05
NK-92 (IL-2 2.5 ng/mL) [18]	0.06
NK-YS (IL-2 2.5 ng/mL) [25]	0.36
NKL (IL-2 2.5 ng/mL) [24]	0.06
SNK-6 (IL-2 2.5 ng/mL) [15]	2.13
YT (IL-2 2.5 ng/mL) [21]	8.17
[1]	1.61
[16]	0.01
[20]	0
[22]	0
[23]	0

percent inhibition of viability [%]
Details	1 nM	10 nM	100 nM	1000 nM	10000 nM
DERL-7 (IL-2 2.5 ng/mL) [13]	-1.82	-3.2	-10.6	1.18	-9
IMC-1 (IL-2 20 ng/mL) [4]	0.28	-0.37	3.06	4.05	15.4
KAI3 (IL-2 2.5 ng/mL) [14]	-0.89	-0.49	8.97	-3.86	21.4
KHYG-1 (IL-2 2.5 ng/mL) [6]	-2.3	-2.14	4.01	1.48	11.2
NK-92 (IL-2 2.5 ng/mL) [5]	-5.87	-0.1	11.4	-3.86	13.6
NK-YS (IL-2 2.5 ng/mL) [12]	1.7	1.75	7.19	1.77	14.5
NKL (IL-2 2.5 ng/mL) [11]	-9.04	4.61	-4.53	4.17	10.7
SNK-6 (IL-2 2.5 ng/mL) [2]	-5.48	15	3.96	19.8	15
YT (IL-2 2.5 ng/mL) [8]	1.47	5.85	29.5	18.9	32.6
[3]	11.6	-5.07	6.95	-4.28	11.9
[7]	-8.77	-7.64	-1.51	-4.94	0.45
[9]	4.02	-6.96	4.16	-9.18	9.23
[10]	-7.97	-0.38	-4.79	-8.7	-1.49
[28]	-4.43	-1.43	-0.64	6.95	22
